Assay results from US20260256763A1, “Aromatic Amide Derivative, And Preparation Method Therefor And Use Thereof” (Zhejiang Hisun Pharmaceutical Co., Ltd., priority 2023, published 2026).

Experiments:
[1] = tested on: OVCAR-3 human ovarian adenocarcinoma tumor fragment xenograft; assay: Pharmacodynamic testing in OVCAR-3 tumor fragment xenograft model; assay type: in vivo, BALB/c nude mice; conditions: 16 days after administration; for Tumor volume (x ± S): mean ± standard error, in mm³
Experimental: An anti-tumor effect of Compound 1 of the present invention in a BALB/c nude mouse animal model with subcutaneous OVCAR-3 human ovarian adenocarcinoma tumor fragment xenograft was evaluated.
BALB/c nude mice, female, 6-7 weeks old, purchased from Jiangsu Gempharmatech Biotechnology Co., Ltd.
Mice in a solvent control group were given DMA:CrEL:5% GS=10:10:80 (v:v:v).
AMG650: a proper amount of AMG-650 was weighed, proper amounts of DMA, CrEL and 5% GS were added in sequence, and the obtained system was evenly mixed by ultrasonic vortex to prepare 0.8 mg/mL and 0.4 mg/mL preparations respectively, wherein DMA, CrEL and 5% GS=10:10:80 (v:v:v).
Compound 1: a proper amount of Compound 1 was weighed, proper amounts of DMA, CrEL and 5% GS were added in sequence, and the obtained system was evenly mixed by ultrasonic vortex to prepare 0.8 mg/mL and 0.4 mg/mL preparations respectively, wherein DMA, CrEL and 5% GS=10:10:80 (v:v:v).
An appropriate OVCAR-3 tumor-bearing animal was selected, a 1 mm×1 mm×1 mm OVCAR-3 tumor fragment was acquired aseptically and placed into normal saline for later use, which was used for subcutaneous tumor inoculation in a right side of back of the BALB/c nude mice.
About 1 mm×1 mm×1 mm OVCAR-3 tumor fragment was subcutaneously inoculated in the right side of back of the female BALB/c nude mice. When an average tumor volume reached about 100-250 mm^3, the mice were randomly grouped according to the tumor size, with 6 mice in each group.
Animals in each group were given the test compound once per day according to an animal weight at a fixed time every day by oral administration (po), the animals started to be administered with the test compound for the first time on the day of grouping for 22 consecutive days, and the animal weight was recorded every day. • The 1st group (G1) was a solvent control group; • The 2nd group (G2) and the 3rd group (G3) were orally administered with AMG-650 at administration dosages of 8 mg/kg and 4 mg/kg respectively once per day (QD); and • The 4th group (G4) and the 5th group (G5) were orally administered with Compound 1 at administration dosages of 8 mg/kg and 4 mg/kg respectively once per day (QD).
Tumor formation at an inoculation site of the animals in each group was observed, and a tumor volume was measured twice per week, and calculated according to the following formula: • a tumor volume (TV), a relative tumor volume (RTV), a relative tumor proliferation rate (T/C) and a relative tumor inhibition rate (TGI) were calculated according to the following formulas:
TV (tumor volume)=½×a×b^2, wherein a and b respectively represented a tumor length and a tumor width; (1)
RTV (relative tumor volume)=Vt/V0, wherein V0 was a tumor volume measured at the time of grouping, and Vt was a tumor volume in each measurement; (2)
T/C (%)=TRTV/CRTV×100%, wherein TRTV was RTV of a treatment group, and CRTV was RTV of a solvent control group; and (3)
TGI %=(1−T/C)×100%, wherein T and C were relative tumor volumes of the treatment group and the solvent control group at a specific time point respectively. (4)

[2] = Pharmacokinetic testing in mice; assay type: in vivo; conditions: male, mouse, ICR mice, plasma; for half-life / Cmax: 10 mg/kg, oral administration (10 mg/mL); for half-life: read-out: Half-life period T½ (converted); for Cmax: read-out: Plasma concentration Cmax; for AUC(0-inf): oral administration (10 mg/kg), read-out: Area under the curve AUC0-∞
Experimental: ICR mice were taken as test animals, and intragastrically administered with a control compound AMG650 and compounds 1, 18 and 29 of the present invention, and then drug concentrations in plasma at different moments were determined by an LC/MS/MS method, so as to study pharmacokinetic characteristics of the compounds of the present invention in the mice.
Control compound AMG650, and Compounds 1, 18 and 29.
ICR mice, male, 27.3-30.3 g, purchased from Vital River Laboratory Animal Technology Co., Ltd.
A proper amount of to-be-tested compound was weighed, proper amounts of DMA (N,N-dimethylacetamide), CrEL (polyoxyethylene 35 castor oil) and 5% GS (5% glucose injection) were added in sequence, and the obtained system was evenly mixed by ultrasonic vortex to prepare a 1 mg/mL preparation, wherein DMA, CrEL and 5% GS=10:10:80 (v:v:v).
ICR mice in each to-be-tested compound injection group (9 mice in each group) were fasted overnight and then intragastrically administered with the compound (PO, an administration dosage of the compound was 10 mg/kg and an administration volume of the compound was 10 mL/kg), and were fed 4 hours after administration.
0.25 hours, 0.5 hours, 1 hour, 2 hours, 4 hours, 8 hours, 10 hours and 24 hours before and after administration, about […] of blood was collected through an orbit, and a complete blood sample was placed in an EDTA-K2-containing anticoagulation tube. The collected blood sample was placed on ice, and plasma was centrifugally separated (centrifugation conditions: 1500 g, 10 minutes). The collected plasma was stored at −40~−20° C. before analysis.
A content of the to-be-tested compound in the plasma of the mice after intragastric administration was determined by LC-MS/MS.

HT-29 cells = assay: Inhibition on HT-29 cell proliferation (CellTiter-Glo); assay type: cell-based; conditions: Homo sapiens, HT-29 cells (TP53 R273H mutation), 120 hours
Experimental: (§1) Influences of the compounds of the present invention on HT-29 cell proliferation were determined by the following method. HT-29 cells (containing TP53 R273H mutation) were purchased from the Cell Bank of Shanghai Institute of Biochemistry and Cell Biology, Chinese Academy of Sciences, and cultured in a McCOY's 5A culture medium containing 10% fetal bovine serum, 100 U penicillin and 100 μg/mL streptomycin. A cell viability was determined by a CellTiter-Glo® Luminescent Cell Viability Assay kit (Promega, article number G7573).
(§2) An experimental method was operated according to steps in the instruction of the kit, which was briefly described as follows: a test compound was dissolved in DMSO first to prepare a 10 mM stock solution, then the stock solution was diluted with the above McCOY's 5A culture medium to prepare a test sample, and a final concentration of the compound was in a range of 1000 nM-0.015 nM. Cells in a logarithmic growth phase were inoculated into a 96-well cell culture plate at a density of 1000 cells per well, cultured in a 5% CO2 incubator at 37° C. overnight, and then the test compound was added to continuously culture for 120 hours. After the culture was ended, 50 µL of CellTiter-Glo detection solution was added to each well, the plates were shaken for 5 minutes, and then allowed to stand for 10 minutes, and subsequently, a luminous value of each well of sample was read by a microplate reader in a Luminescence mode. By comparing with a numerical value of a control group (0.3% DMSO), a percentage inhibition rate of the compound at each concentration was calculated, and then nonlinear regression analysis was carried out based on concentration logarithm-inhibition rate of the compound in GraphPad Prism 5 software, so as to obtain an IC50 value of the compound in inhibition on cell proliferation, which are shown in Table 2.

OVCAR-3 cells = assay: Inhibition on OVCAR-3 cell proliferation (CellTiter-Glo); assay type: cell-based; conditions: Homo sapiens, OVCAR-3 cells (TP53 R248Q mutation), 72 hours
Experimental: as §1, with “OVCAR-3” for “HT-29”, “R248Q” for “R273H”, “an RPMI 1640” for “a McCOY's 5A”, “[…]” for “10%”
as §2, with “RPMI 1640” for “McCOY's 5A”, “72” for “120”, “μL” for “µL”, “1.” for “2.”

recombinant human KIF18A = target: T1, recombinant human KIF18A (Homo sapiens, UniProt Q8NI77); assay: Inhibition on KIF18A enzyme activity (ADP-Glo); assay type: biochemical; conditions: recombinant human KIF18A 100 nM, ATP 60 μM
T1 construct: purchased GenScript
T1 sequence (Q8NI77 whole entry): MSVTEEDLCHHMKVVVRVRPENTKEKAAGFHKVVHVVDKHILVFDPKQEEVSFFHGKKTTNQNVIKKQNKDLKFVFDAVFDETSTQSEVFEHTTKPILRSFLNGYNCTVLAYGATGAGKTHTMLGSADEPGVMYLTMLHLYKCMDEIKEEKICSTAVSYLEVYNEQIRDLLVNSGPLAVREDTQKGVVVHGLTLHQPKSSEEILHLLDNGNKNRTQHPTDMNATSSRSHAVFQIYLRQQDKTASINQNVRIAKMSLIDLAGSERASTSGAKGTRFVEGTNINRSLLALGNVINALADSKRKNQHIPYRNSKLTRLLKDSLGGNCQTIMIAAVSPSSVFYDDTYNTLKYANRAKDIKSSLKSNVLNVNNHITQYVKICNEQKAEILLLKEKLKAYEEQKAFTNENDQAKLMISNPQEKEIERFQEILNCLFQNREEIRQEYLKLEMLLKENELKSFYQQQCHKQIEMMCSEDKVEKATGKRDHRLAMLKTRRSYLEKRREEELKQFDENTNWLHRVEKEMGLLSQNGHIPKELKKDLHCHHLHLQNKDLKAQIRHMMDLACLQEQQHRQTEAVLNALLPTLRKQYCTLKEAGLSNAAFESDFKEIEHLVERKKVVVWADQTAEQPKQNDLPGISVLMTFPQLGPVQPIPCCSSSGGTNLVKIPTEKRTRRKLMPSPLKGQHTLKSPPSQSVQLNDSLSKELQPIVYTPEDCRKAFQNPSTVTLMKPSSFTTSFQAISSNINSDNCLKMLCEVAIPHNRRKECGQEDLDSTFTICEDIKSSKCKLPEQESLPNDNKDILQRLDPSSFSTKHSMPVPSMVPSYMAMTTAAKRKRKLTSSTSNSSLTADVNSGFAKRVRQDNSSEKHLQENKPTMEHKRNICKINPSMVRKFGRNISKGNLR
T1 sequence (P68363 whole entry partner): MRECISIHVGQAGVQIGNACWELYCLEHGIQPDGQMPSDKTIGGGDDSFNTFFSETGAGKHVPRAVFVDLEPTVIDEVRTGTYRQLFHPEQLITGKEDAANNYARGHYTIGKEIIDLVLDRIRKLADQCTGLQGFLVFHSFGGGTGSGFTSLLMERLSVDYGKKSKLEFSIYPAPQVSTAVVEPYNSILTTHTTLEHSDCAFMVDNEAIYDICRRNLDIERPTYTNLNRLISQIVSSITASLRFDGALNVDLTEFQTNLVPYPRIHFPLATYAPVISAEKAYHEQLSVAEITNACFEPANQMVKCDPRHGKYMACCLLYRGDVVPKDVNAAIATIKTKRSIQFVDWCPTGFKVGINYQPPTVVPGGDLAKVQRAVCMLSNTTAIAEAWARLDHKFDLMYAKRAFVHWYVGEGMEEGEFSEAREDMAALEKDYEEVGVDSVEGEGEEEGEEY
T1 sequence (Q9BVA1 whole entry partner): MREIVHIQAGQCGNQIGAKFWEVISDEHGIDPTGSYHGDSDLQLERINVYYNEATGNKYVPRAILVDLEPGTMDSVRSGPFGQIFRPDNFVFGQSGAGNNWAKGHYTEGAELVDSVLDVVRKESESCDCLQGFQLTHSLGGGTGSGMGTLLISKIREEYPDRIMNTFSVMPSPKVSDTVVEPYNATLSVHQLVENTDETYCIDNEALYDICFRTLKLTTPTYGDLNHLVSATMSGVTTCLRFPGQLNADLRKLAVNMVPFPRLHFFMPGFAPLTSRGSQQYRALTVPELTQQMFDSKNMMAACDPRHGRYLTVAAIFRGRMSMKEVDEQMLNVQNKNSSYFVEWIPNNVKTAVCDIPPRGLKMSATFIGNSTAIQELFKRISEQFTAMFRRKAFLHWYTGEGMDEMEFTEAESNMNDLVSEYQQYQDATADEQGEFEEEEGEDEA
Experimental: Inhibition degrees of the compounds of the present invention on recombinant human KIF18A enzyme activity in vitro were determined by the following method. An ADP-Glo™ Kinase Assay kit (article number V9102) from Promega Company was used in this method. Detailed experimental operation can be referred to the instruction of the kit.
The reaction was carried out in a 384-well microplate. The test compound and the recombinant human KIF18A protein (final concentration of 100 nM, entrusted to GenScript for expression) were added into the wells and incubated at room temperature for 20 minutes, and subsequently, ATP solution (component V915A from the ADP-Glo™ Kinase Assay kit, final concentration of 60 μM) was added to the reaction solution and the obtained system was incubated at room temperature for 20 minutes. Subsequently, 5 μL of ADP-Glo Reagent was added to the reaction system and the obtained system was incubated at room temperature for 50 minutes. Then, 10 μL of Kinase Detection Reagent was added to the reaction system, and the obtained system was incubated at room temperature for 30 minutes. After the incubation was ended, a chemiluminiscence intensity value of each well was determined by a microplate reader in a Luminescence mode.

Row | Structure (SMILES) | TGI ([1]; 4 mg/kg po QD) | Tumor volume (x ± S) ([1]; 4 mg/kg po QD) | TGI ([1]; 8 mg/kg po QD) | Tumor volume (x ± S) ([1]; 8 mg/kg po QD) | half-life [2] | Cmax [2] | AUC(0-inf) [2] | IC50 (HT-29 cells) | IC50 (OVCAR-3 cells) | IC50 (recombinant human KIF18A)
1 | Cc1cc(NC(=O)c2ccc(NS(=O)(=O)CCO)cc2N2CCC3(CC2)CC3)nc(N2CCC(F)(F)CC2)n1 [AMG 650, reference compound] | 15.3% | 511 ± 49 | 60.5% | 243 ± 35 |  |  |  |  |  | 
2 | CCS(=O)(=O)Nc1ccc(C(=O)Nc2cc(N3CCC(F)(F)CC3)c3nn(C)cc3c2)c(N2CCC3(CC2)CC3)c1 [Example 18, N-(7-(4,4-difluoropiperidin-1-yl)-2-methyl-2H-indazol-5-yl)-4-(ethylsulfonamido)-2-(6-azaspiro[2.5]octan-6-yl)benzamide] |  |  |  |  | 5.2 h | 3030 ng/mL | 45900 ng·h/mL | 7.7 nM | 3.3 nM | 
3 | O=C(Nc1cc2c(c(N3CCC(F)(F)CC3)c1)OCC2)c1ccc(NS(=O)(=O)CCO)cc1N1CCC2(CC1)CC2 [Example 29, N-(7-(4,4-difluoropiperidin-1-yl)-2,3-dihydrobenzofuran-5-yl)-4-((2-hydroxyethyl)sulfamine)-2-(6-azaspiro[2.5]octan-6-yl)benzamide] |  |  |  |  | 1.24 h | 6960 ng/mL | 25900 ng·h/mL |  |  | 316 nM
